The assay has as its system HaCaT keratinocyte cells. Nature of the assay: Internalization mechanism (endocytosis inhibitors / siRNA, flow cytometry). To be noted: vs scrambled siRNA. Type of assay: cell-based, human. The method, then:
In an embodiment the HaCaT keratinocyte cells were cultured on 24 well plates (1×10^6 cells/well) and inhibited by one of the following chemicals during 30 min before adding a suspension of Rhodamine-labelled NPs (15 μg/mL): dynasor (100 μM), cytochalasin D (100 μM), nocodazole (25 uM), filipin III (1 μM) and polyinosinic acid (100 μg/mL), 5-(N-ethyl-N-isopropyl)amiloride (EIPA), dextran sulfate. The inhibitor concentrations were based in values reported in literature and further validated by us to have no cytotoxic effect over the period of the assay (6 h), as confirmed by viability assay. The incubation of the cells with NPs for different times was performed in the presence of the inhibitor. As controls, HaCaT keratinocyte cells without NPs and cells incubated with NPs without inhibitor were used. […] Cells were then evaluated as before.
In an embodiment the NP uptake mechanism was also studied on HaCaT keratinocyte cells by silencing specific proteins of clathrin-mediated endocytosis (CLTC and LDLR), caveolin-mediated endocytosis (CAV1), GEEC-CCLIC pathways (CDC42) and macropinocytosis (RAC1 and CTBP1) and scavenger receptor (SCARA3) by siRNA (Thermo Fisher). […] In all FACS analysis, a total of 10,000 events were recorded per run. […]
Background: A flow cytometer gives signals particle by particle.

For the compound `CC[C@H](C)[C@H](NC(=O)[C@H](CCCCN)NC(=O)[C@H](CCC(=O)O)NC(=O)[C@H](CCCCN)NC(=O)[C@H](CO)NC(=O)[C@H](CCCCN)NC(=O)[C@H](CCCNC(=N)N)NC(=O)[C@H](Cc1ccccc1)NC(=O)[C@H](Cc1ccccc1)NC(=O)[C@H](CC(=O)O)NC(=O)CNC(=O)[C@H](CC(C)C)NC(=O)[C@@H](N)CC(C)C)C(=O)NCC(=O)N[C@@H](CCCCN)C(=O)N[C@@H](CCC(=O)O)C(=O)N[C@@H](Cc1ccccc1)C(=O)N[C@@H](CCCCN)C(=O)N[C@@H](CCCNC(=N)N)C(=O)N[C@H](C(=O)N[C@H](C(=O)N[C@@H](CCC(N)=O)C(=O)N[C@@H](CCCNC(=N)N)C(=O)N[C@H](C(=O)N[C@@H](CCCCN)C(=O)N[C@@H](CC(=O)O)C(=O)N[C@@H](Cc1ccccc1)C(=O)N[C@@H](CC(C)C)C(=O)N[C@@H](CCCNC(=N)N)C(=O)N[C@@H](CC(N)=O)C(=O)N[C@@H](CC(C)C)C(=O)N[C@H](C(=O)N1CCC[C@H]1C(=O)N[C@@H](CCCNC(=N)N)C(=O)N[C@H](C(=O)N[C@@H](CCC(=O)O)C(=O)N[C@@H](CO)C(=O)N[C@@H](CS)C(N)=O)[C@@H](C)O)C(C)C)[C@@H](C)CC)C(C)C)[C@@H](C)CC` [LL37], the “reduction of uptake upon SCARA3 siRNA knockdown” value stood at 60%.
